Results reported in PubChem BioAssay AID330 (DTP/NCI, 2004).
Several values for one entry are separate records, joined by “and”; a condition that tells them apart may be missing. Equal entries are not always repeated. Inconclusive results and toxic doses are left out.

Tested on: P388 leukemia ip, CD2F1 mice, survival T/C
Assay: NCI In Vivo Anticancer Drug Screen. Data for tumor model P388 Leukemia (intraperitoneal) in CD2F1 (CDF1) mice
Settings: endpoint: median survival time, higher = longer survival
How it was run: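 Mice carrying the transplanted tumor received test compound or vehicle. Survival was recorded in each group, and the value is the treated-group measurement divided by that of the vehicle-treated control group.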

[1] = dose: 50.0 mg/kg/injection, schedule: Q01DX005 (ip), vehicle: saline with Tween-80
[2] = dose: 100.0 mg/kg/injection, schedule: Q01DX005 (ip), vehicle: saline with Tween-80
[3] = dose: 200.0 mg/kg/injection, schedule: Q01DX005 (ip), vehicle: saline with Tween-80
[4] = dose: 100.0 mg/kg/injection, schedule: Q04DX002 (ip), vehicle: saline
[5] = dose: 200.0 mg/kg/injection, schedule: Q04DX002 (ip), vehicle: saline
[6] = dose: 400.0 mg/kg/injection, schedule: Q04DX002 (ip), vehicle: saline

CCN(CC)CC[n+]1ccc2c(C)c3[nH]c4ccc(O)cc4c3c(C)c2c1 was tested, and the T/C (dose: 1.56 mg/kg/injection, schedule: Q04DX003 (ip), vehicle: saline) was 167 % of control, the T/C (dose: 1.56 mg/kg/injection, schedule: Q04DX003 (ip), vehicle: suspension in saline) was 155 % of control and the T/C (dose: 1.56 mg/kg/injection, schedule: Q04DX003 (ip), vehicle: water) was 156 % of control. The T/C (dose: 3.12 mg/kg/injection, schedule: Q04DX003 (ip), vehicle: saline) was 155 % of control, the T/C (dose: 3.12 mg/kg/injection, schedule: Q04DX003 (ip), vehicle: suspension in saline) was 169 % of control and the T/C (dose: 3.12 mg/kg/injection, schedule: Q04DX003 (ip), vehicle: water) was 161 % of control. For the same compound, the T/C (dose: 6.25 mg/kg/injection, schedule: Q04DX003 (ip), vehicle: saline) was 180 % of control and 213 % of control, the T/C (dose: 6.25 mg/kg/injection, schedule: Q04DX003 (ip), vehicle: suspension in saline) was 169 % of control and the T/C (dose: 6.25 mg/kg/injection, schedule: Q04DX003 (ip), vehicle: water) was 166 % of control. The T/C (dose: 12.5 mg/kg/injection, schedule: Q04DX003 (ip), vehicle: saline) was 174 % of control and 177 % of control, the T/C (dose: 12.5 mg/kg/injection, schedule: Q04DX003 (ip), vehicle: suspension in saline) was 226 % of control and the T/C (dose: 12.5 mg/kg/injection, schedule: Q04DX003 (ip), vehicle: water) was 181 % of control. For the same compound, the T/C (dose: 25.0 mg/kg/injection, schedule: Q04DX003 (ip), vehicle: saline) was 194 % of control and 210 % of control, the T/C (dose: 25.0 mg/kg/injection, schedule: Q04DX003 (ip), vehicle: suspension in saline) was 164 % of control and the T/C (dose: 50.0 mg/kg/injection, schedule: Q04DX003 (ip), vehicle: saline) was 178 % of control and 203 % of control. The T/C (dose: 50.0 mg/kg/injection, schedule: Q04DX003 (ip), vehicle: suspension in saline) was 180 % of control.

With O=C1c2ccccc2C(=O)c2c1cc1c(O)c(CN3CCCC3)ccc1c2O the T/C [1] was 92 % of control and the T/C [2] was 89 % of control.

Cc1ccc(N/N=c2\c3nc4ccccc4nc2n(-c2ccccc2C)c(=S)n3-c2ccccn2)cc1 was tested, and the T/C [1] was 100 % of control and the T/C [2] was 96 % of control.

For CC12NC(=O)NC1(C)NC(=O)N2 (stereo not given), the T/C (dose: 50.0 mg/kg/injection, schedule: Q01DX009 (ip), vehicle: saline) was 107 % of control, the T/C (dose: 100.0 mg/kg/injection, schedule: Q01DX009 (ip), vehicle: saline) was 87 % of control and the T/C (dose: 100.0 mg/kg/injection, schedule: Q04DX003 (ip), vehicle: saline) was 103 % of control. The T/C (dose: 200.0 mg/kg/injection, schedule: Q04DX003 (ip), vehicle: saline) was 97 % of control.

For O=C(CCC(=O)ON1C(=O)CCC1=O)OCCOC(=O)CCC(=O)ON1C(=O)CCC1=O, the T/C [1] was 116 % of control, the T/C [2] was 114 % of control and the T/C [3] was 98 % of control.

Cc1csc(N)n1 was tested, and the T/C [4] was 97 % of control, the T/C [5] was 95 % of control and the T/C [6] was 101 % of control.

CC1(C)S[C@@H]2C(Cl)=C(Cl)C(=O)N2[C@H]1C(=O)O was tested, and the T/C [1] was 91 % of control and the T/C [2] was 91 % of control.

With COc1cccc2c1C(=O)c1c(O)c3c(c(O)c1C2=O)C[C@@](O)(C(C)O)C[C@@H]3OC1CC(N)C(O)C(C)O1 (stereo not given in full) the T/C (dose: 1.08 mg/kg/injection, schedule: Q01DX009 (ip), vehicle: saline) was 168 % of control, the T/C (dose: 1.8 mg/kg/injection, schedule: Q01DX009 (ip), vehicle: saline) was 163 % of control and 172 % of control and the T/C (dose: 3.0 mg/kg/injection, schedule: Q01DX009 (ip), vehicle: saline) was 159 % of control and 173 % of control. The T/C (dose: 3.0 mg/kg/injection, schedule: Q04DX003 (ip), vehicle: saline) was 150 % of control, the T/C (dose: 5.0 mg/kg/injection, schedule: Q01DX009 (ip), vehicle: saline) was 173 % of control and 195 % of control and the T/C (dose: 5.0 mg/kg/injection, schedule: Q04DX003 (ip), vehicle: saline) was 154 % of control. The T/C (dose: 8.0 mg/kg/injection, schedule: Q01DX001 (ip), vehicle: saline) was 154 % of control, the T/C (dose: 8.0 mg/kg/injection, schedule: Q01DX009 (ip), vehicle: saline) was 150 % of control and the T/C (dose: 8.0 mg/kg/injection, schedule: Q04DX003 (ip), vehicle: saline) was 163 % of control. For the same compound, the T/C (dose: 13.3 mg/kg/injection, schedule: Q01DX009 (ip), vehicle: saline) was 90 % of control, the T/C (dose: 13.3 mg/kg/injection, schedule: Q04DX003 (ip), vehicle: saline) was 172 % of control and the T/C (dose: 22.2 mg/kg/injection, schedule: Q01DX001 (ip), vehicle: saline) was 181 % of control. The T/C (dose: 37.0 mg/kg/injection, schedule: Q01DX001 (ip), vehicle: saline) was 163 % of control, the T/C (dose: 37.0 mg/kg/injection, schedule: Q04DX003 (ip), vehicle: saline) was 100 % of control and the T/C (dose: 61.7 mg/kg/injection, schedule: Q01DX001 (ip), vehicle: saline) was 90 % of control.

For O=C(CCCc1ccc(N(CCCl)CCCl)cc1)Nc1ncccn1, the T/C (dose: 5.3 mg/kg/injection, schedule: Q01DX009 (ip), vehicle: Klucel (hydroxypropylcellulose) (HPC)) was 95 % of control, the T/C (dose: 8.0 mg/kg/injection, schedule: Q01DX009 (ip), vehicle: Klucel (hydroxypropylcellulose) (HPC)) was 159 % of control and the T/C (dose: 12.0 mg/kg/injection, schedule: Q01DX009 (ip), vehicle: Klucel (hydroxypropylcellulose) (HPC)) was 150 % of control. For the same compound, the T/C (dose: 18.0 mg/kg/injection, schedule: Q01DX009 (ip), vehicle: Klucel (hydroxypropylcellulose) (HPC)) was 159 % of control.

For CCCCCCCCCCCCCC(=O)OCCN1CCN(CCCN2c3ccccc3Sc3ccc(C(F)(F)F)cc32)CC1, the T/C (dose: 3.12 mg/kg/injection, schedule: Q01DX009 (ip), vehicle: saline with Tween-80) was 106 % of control, the T/C (dose: 6.25 mg/kg/injection, schedule: Q01DX009 (ip), vehicle: saline with Tween-80) was 102 % of control and the T/C (dose: 12.5 mg/kg/injection, schedule: Q01DX009 (ip), vehicle: saline with Tween-80) was 112 % of control and 113 % of control. The T/C (dose: 25.0 mg/kg/injection, schedule: Q01DX009 (ip), vehicle: saline with Tween-80) was 116 % of control.

With O=C1SC(=NC2CCCCC2)N(C2CCCCC2)/C1=C1\C(=O)SC(=NC2CCCCC2)N1C1CCCCC1 the T/C (dose: 15.0 mg/kg/injection, schedule: Q01DX005 (ip), vehicle: saline with Tween-80) was 92 % of control and the T/C (dose: 30.0 mg/kg/injection, schedule: Q01DX005 (ip), vehicle: saline with Tween-80) was 90 % of control.

In the case of CCCCC/C=N/N(C)C=O, the T/C [4] is reported as 103 % of control, the T/C [5] is reported as 103 % of control and the T/C [6] is reported as 100 % of control.

In the case of CC1CN(Cc2ccccc2O)CC(C)N1 (stereo not given), the T/C (dose: 6.25 mg/kg/injection, schedule: Q01DX009 (ip), vehicle: water) is reported as 90 % of control, the T/C (dose: 12.5 mg/kg/injection, schedule: Q01DX009 (ip), vehicle: water) is reported as 93 % of control and the T/C (dose: 25.0 mg/kg/injection, schedule: Q01DX009 (ip), vehicle: water) is reported as 106 % of control. The T/C (dose: 50.0 mg/kg/injection, schedule: Q01DX009 (ip), vehicle: water) was 91 % of control and the T/C (dose: 100.0 mg/kg/injection, schedule: Q01DX009 (ip), vehicle: water) was 94 % of control.

Nc1nc2c(-c3ccc([N+](=O)[O-])cc3)nnn2c2ccccc12 was tested, and the T/C (dose: 50.0 mg/kg/injection, schedule: Q01DX009 (ip), vehicle: saline with Tween-80) was 95 % of control, the T/C (dose: 100.0 mg/kg/injection, schedule: Q01DX009 (ip), vehicle: saline with Tween-80) was 86 % of control and the T/C (dose: 200.0 mg/kg/injection, schedule: Q01DX009 (ip), vehicle: saline with Tween-80) was 95 % of control.

For CC(C(N)C(=O)NC(C(=O)O)C1OC(n2ccc(=O)[nH]c2=O)C(O)C1O)C(O)c1ccc(O)cn1 (stereo not given), the T/C (dose: 25.0 mg/kg/injection, schedule: Q01DX005 (ip), vehicle: saline) was 100 % of control, the T/C (dose: 50.0 mg/kg/injection, schedule: Q01DX005 (ip), vehicle: saline) was 103 % of control and the T/C (dose: 100.0 mg/kg/injection, schedule: Q01DX005 (ip), vehicle: saline) was 100 % of control.

In the case of CCOC(=O)C1CSC2(CC(C)CC(C)(C)C2)N1 (stereo not given), the T/C [1] is reported as 106 % of control, the T/C [2] is reported as 107 % of control and the T/C [3] is reported as 104 % of control.

In the case of O=C(O)C1CCN1C1CCCCC1 (stereo not given), the T/C (dose: 100.0 mg/kg/injection, schedule: Q01DX009 (ip), vehicle: saline sonified) is reported as 90 % of control, the T/C (dose: 200.0 mg/kg/injection, schedule: Q01DX009 (ip), vehicle: saline sonified) is reported as 100 % of control and the T/C (dose: 400.0 mg/kg/injection, schedule: Q01DX009 (ip), vehicle: saline sonified) is reported as 104 % of control.

For NS(=O)(=O)c1cc2c(cc1Cl)NC(Cc1ccccc1)NS2(=O)=O (stereo not given), the T/C (dose: 60.0 mg/kg/injection, schedule: Q01DX005 (ip), vehicle: saline with Tween-80) was 100 % of control, the T/C (dose: 120.0 mg/kg/injection, schedule: Q01DX005 (ip), vehicle: saline with Tween-80) was 93 % of control and the T/C (dose: 240.0 mg/kg/injection, schedule: Q01DX005 (ip), vehicle: saline with Tween-80) was 93 % of control.
